“And” between values parts separate entries of the source, which are not always exact repeats. Equal entries are not always repeated.
test system: Salmonella Typhi PhoP-promoter GFP reporter, fluorescence, 4 h; experiment: PhoP regulon inhibitors, Salmonella typhi PhoP promoter GFP reporter, confirmatory (AID 1850)

In order of rising IC50:
1. C[C@H]1c2cccc(O)c2C(O)=C2C(=O)C3(O)C(O)=C(C(N)=O)C(=O)[C@@H](N(C)C)[C@@H]3[C@@H](O)[C@@H]21 (stereo partly drawn)  2.01 µM
2. O=C1c2ccccc2C2=Nc3ccccc3SC(c3ccccc3F)C12 (stereo not drawn)  3.8 µM
3. O=C(NC(CO)C(O)c1ccc([N+](=O)[O-])cc1)C(Cl)Cl (stereo not drawn)  5.12 µM
4. OCCNc1nc(Nc2ccc(Br)cc2)nc2ccccc12  6.86 µM
5. CO[C@H]1/C=C/O[C@@]2(C)Oc3c(C)c(O)c4c(O)c(c(C=NN5CCN(C)CC5)c(O)c4c3C2=O)NC(=O)/C(C)=C\C=C\[C@H](C)[C@H](O)[C@@H](C)[C@@H](O)[C@@H](C)[C@H](OC(C)=O)[C@@H]1C  9.7 µM
6. COc1cccc(Nc2nc(NCC3CCCO3)c3ccccc3n2)c1 (stereo not drawn)  10.2 µM
7. CCOc1ccc(Nc2c3ccccc3nc3ccccc23)cc1  10.2 µM
8. OCCNc1nc(Nc2ccccc2)nc2ccccc12  10.2 µM
9. Nc1nonc1C(=O)N/N=C/c1cc(Br)ccc1O  10.5 µM
10. NC(=O)SCC(=O)Nc1ccc(Cl)c(Cl)c1  13.7 µM
11. N/C(=N\OS(=O)(=O)c1ccccc1)c1cccnc1  14.2 µM
12. CN(C)c1ccc2nc3ccc(=[N+](C)C)cc-3sc2c1  18.2 µM
13. CN(C)CCCNc1cc(C(C)(C)C)nc2c(-c3ccc(Cl)cc3)cnn12  18.9 µM
14. O=C(Cc1ccc([N+](=O)[O-])cc1)N/N=C/c1ccc([N+](=O)[O-])o1  19.9 µM
15. Cc1ccc(C[n+]2c(-c3ccc(C)cc3)cc(-c3ccc(C)cc3)cc2-c2ccc(C)cc2)cc1  20.1 µM
16. Cc1ccc(-n2c(C)cc(C3N=C(N)Nc4nc5ccccc5n43)c2C)c(C)c1 (stereo not drawn)  20.8 µM
17. O=C(C[n+]1cc(-c2ccc(Cl)cc2)n2c1CCC2)Nc1nc(-c2ccccc2)cs1  22 µM
18. O=C(/C=C/c1ccccc1)c1cc(Br)ccc(=O)c1O  24.5 µM
19. Cc1ccc(-c2csc(NC(=O)C[n+]3cc(-c4ccc(C)cc4)n4c3CCC4)n2)cc1  25 µM
20. COC(=O)C1C(O)C(C)C(O)C(C)/C=C\C=C(/C)C(=O)Nc2c(C)c(OC(C)=O)c3c(c2O)C(=O)C(C)=C2OCOC(=C23)/C(C)=C/C(C)(O)C(O)C(C)C1O (stereo not drawn)  25.2 µM
21. O=C(CN1CC[n+]2c(-c3cccs3)csc21)c1ccc(-c2ccccc2)cc1  26.4 µM
22. O=C(C[n+]1cc(-c2ccc(Cl)c(Cl)c2)n2c1CCC2)N1c2ccccc2Sc2ccccc21  26.9 µM
23. O=C(N/N=C\c1cccc([N+](=O)[O-])c1O)C1COc2ccccc2O1 (stereo not drawn)  27.4 µM
24. Cc1ccc(O)c(Nc2c3ccccc3nc3ccccc23)c1  27.7 µM
25. Cc1cc(/C=C\c2ccc3cc(N(C)C)ccc3[n+]2C)c(C)n1-c1ccccc1  27.8 µM
26. O=C1OCCN1/N=C/c1ccc([N+](=O)[O-])o1  33.1 µM
27. C#CCOCCOCCOCCNc1nc(N2CCN(C(=O)CCCCCCCCCCNC(=O)[C@H](CCCCN)n3cc(C[C@@H](C)CC)nn3)CC2)nc(N2CCN(C(=O)CCCCCCCCCCNC(=O)[C@H](CCCN=C(N)N)n3cc(C[C@@H](C)CC)nn3)CC2)n1  33.3 µM
28. Cc1c(CCOC(=O)C2C3CC4CC(C3)CC2C4)sc[n+]1CC(=O)c1ccc(Br)cc1 (stereo not drawn)  34.8 µM
29. CN1CCN(C2Cc3cc(Cl)ccc3Sc3cc(F)ccc32)CC1 (stereo not drawn)  35 µM
30. CCCCn1c(NS(=O)(=O)c2ccccc2)c(C(=O)OCC)c2nc3ccccc3nc21  35 µM
31. Oc1[nH]c2ccccc2c1N=NC(=S)N1CCOCC1  35.7 µM
32. COc1cc(CNCCc2ccccc2)cc(Cl)c1OCc1ccccc1  35.9 µM
33. O=C(c1ccccc1)c1c2c(cc3sc4ccccc4[n+]13)-c1cccc3cccc-2c13  35.9 µM
34. Fc1ccc(Nc2nnc(C(F)(F)F)s2)cc1Cl  36.8 µM
35. N/C(=N\N=C/c1ccc(F)cc1)N/N=C\c1ccc(F)cc1  37.8 µM
36. Cc1cc(OCC(O)CNC(C)c2ccccc2)ccc1C(C)C (stereo not drawn)  38.1 µM
37. O[C@@H](c1cc(C(F)(F)F)nc2c(C(F)(F)F)cccc12)[C@H]1CCCCN1  40.3 µM
38. O=C1CN(/N=C/c2ccc([N+](=O)[O-])o2)C(=O)N1  41.1 µM
39. CCCOc1ccc(C(=O)NNC(=S)NC(=O)CC)cc1  47.7 µM
40. Cc1ccc(C)c(NC(=O)CCC(=O)N/N=C/c2cc([N+](=O)[O-])ccc2O)c1  60.6 µM
41. CCOC(=O)c1c(-c2ccccc2)oc2ccc(OCC(O)CNCCN(C)C)cc12 (stereo not drawn)  61 µM
42. CN(C)CCCn1c(SCC(=O)N2c3ccccc3Sc3ccccc32)nc2ccccc2c1=O  62.8 µM
43. OC1(c2ccc(Cl)cc2)CCN(Cc2c[nH]c3ccccc23)CC1  69.5 µM
44. CCCCOCCCNc1ncnc2c1[nH]c1ccccc12  71.1 µM
45. CCc1ccc(NC(=O)Nc2ccncc2)cc1  71.3 µM
46. O=C(CSc1nnc(-c2ccccc2)n1-c1ccc(Cl)cc1)NC1CCS(=O)(=O)C1 (stereo not drawn)  73.8 µM
47. Cc1cc(C)c(OCCCCNCc2ccccc2)c(Cl)c1  74.6 µM
48. Clc1cccc(CN2CCc3c([nH]c4ccccc34)C2)c1Cl  76.5 µM
49. CCCCc1ccc(N/C(N)=N/c2nc(C)cc(C)n2)cc1  77.8 µM
50. Cc1ccc(NC(=O)CN(C)C2CCCCC2)cc1Br  81.2 µM
51. Nc1cc2c3c(cccc3c1)C(=O)N(CCN1CCCC1)C2=O  83.8 µM
52. O=C(/C=C/c1cc(Br)ccc1O)c1ccco1  83.9 µM
53. O=C(CSc1ccccn1)Nc1nonc1[N+](=O)[O-]  87.3 µM
54. O=C(N/N=C/c1ccccc1O)C1SCCCS1  87.9 µM
55. O=[N+]([O-])/C=C/c1cc2ccccc2[nH]1  95 µM
56. CCCCCNC(=O)c1cn(CC)c2cc(N3CCN(C)CC3)c(F)cc2c1=O  98 µM
57. COc1cc(Br)cc(/C=N/c2ncn[nH]2)c1O  98.4 µM
58. C#CCOCCOCCOCCNc1nc(N2CCN(C(=O)CCCCCCCCCCNC(=O)Cn3cc(CCCCCN)nn3)CC2)nc(N2CCN(C(=O)CCCCCCCCCCNC(=O)[C@@H]([C@H](C)O)n3cc(C)nn3)CC2)n1  114 µM
59. C#CCOCCOCCOCCNc1nc(N2CCN(C(=O)CCCCCCCCCCNC(=O)[C@@H](CCSC)n3cc(CCO)nn3)CC2)nc(N2CCN(C(=O)CCCCCCCCCCNC(=O)[C@H]([C@@H](C)CC)n3cc(CCCCCN)nn3)CC2)n1  119 µM
60. COc1cc2c3cc1Oc1cc(ccc1O)C[C@@H]1c4c(cc(OC)c(O)c4Oc4ccc(cc4)C[C@H]3N(C)CC2)CCN1C  144 µM
61. CCCN(CCC)CCNC(=O)C1CCN(Cc2nc(-c3ccc(Cl)cc3)oc2C)CC1  148 µM
62. Oc1ccc(C2NCc3ccccc3-n3cccc32)cc1Cl (stereo not drawn)  150 µM

In the case of `CN(C)[C@@H]1C(=O)C(C(N)=O)=C(O)[C@@]2(O)C(=O)C3=C(O)c4c(O)cccc4[C@@](C)(O)C3[C@H](O)C12` (stereo partly drawn), the IC50 is reported as 1.03 µM and 4.02 µM.
